Results reported in US4818764A, “Imidazoline derivative and method of treating depression therewith” (priority 1980, dated 1989).
“Also recorded” adds a separate entry of the source. Where a name gives a salt, the structure may show the parent alone.

Key:
[1] = test system: presynaptic α-adrenoreceptor; experiment: Presynaptic α-adrenoreceptor antagonism in the pithed rat: vas deferens, intravenous activity; format: in vivo; conditions: for i.v. dose of antagonist causing 50% reversal of clonidine block on vas deferens: pithed rat, clonidine 100 μg/kg i.v., cumulative i.v. dosing, mean of minimum 4 rats
Procedure: This test model extends the evaluation of presynaptic α-adrenoreceptor antagonism versus clonidine on the rat vas deferens to the in vivo situation. Blood pressure and stimulation induced contractions of the vas deferens were monitored in pithed rats using the method of Brown, J., Doxey, J. C., Handley, S. and Virdee, N., Recent Advances in the Pharmacology of Adrenoceptors, Elsevier North Holland, 1978. Clonidine (100 μg/kg, i.v.) causes a prolonged pressor response and a prolonged inhibition of vas deferens contractions. The test drugs were injected intravenously in a cumulative dosing schedule and their abilities to reverse the inhibition of hypogastric nerve stimulation reflected their presynaptic antagonism.

[2] = test system: presynaptic α-adrenoreceptor; experiment: Reversal of guanabenz block of the anococcygeus muscle of the pithed rat, intravenous; format: in vivo; conditions: for Intravenous dose of antagonist causing 50% reversal of guanabenz block of anococcygeus muscle: pithed rat, guanabenz acetate 30 μg/kg i.v.
DOCA hypertensive rats = experiment: Effect on blood pressure and heart rate of conscious DOCA hypertensive rats; format: in vivo, rat
Source text: Results are given in Table 5 in terms of peak percentage fall in B.P.

[3] = test system: postsynaptic α-adrenoreceptors (rat anococcygeus muscle); experiment: Postsynaptic α-adrenoreceptor antagonism vs noradrenaline contractions in isolated rat anococcygeus muscle; format: cell-based; conditions: mean of minimum 5 experiments, "<" means inactive at a concentration which would have given the pA indicated
Source text: (§1) This in vitro model is particularly useful as an initial screen for studying presynaptic activity in isolation since the physiological nature of the vas deferens tissue is such that the post synaptic receptors located therein are particularly inaccessible to exogenous agents. In consequence an alternative tissue, the rat anococcygeus muscle is used to establish postsynaptic α-adrenoreceptor activity. Antagonism of noradrenaline contractions is used to determine pA2 values at postsynaptic α-adrenoreceptors. The ratio of presynaptic α-adrenoreceptor antagonism (versus clonidine on the rat vas deferens) to postsynaptic α-adrenoreceptor antagonism (versus noradrenaline contractions on the rat anococcygeus muscle) is used to assess adrenoreceptor selectivity.

[4] = target: T1, presynaptic α2-adrenoreceptor (rat vas deferens) (Rattus norvegicus, UniProt P22909); experiment: Presynaptic α-adrenoreceptor antagonism vs clonidine in isolated rat vas deferens (0.1 Hz stimulation); format: cell-based
T1 construct: Pre- and postsynaptic α-adrenoreceptor antagonism in isolated tissue experiments; from tissue; host or cells: isolated rat vas deferens
T1 sequence (P22909 1-465): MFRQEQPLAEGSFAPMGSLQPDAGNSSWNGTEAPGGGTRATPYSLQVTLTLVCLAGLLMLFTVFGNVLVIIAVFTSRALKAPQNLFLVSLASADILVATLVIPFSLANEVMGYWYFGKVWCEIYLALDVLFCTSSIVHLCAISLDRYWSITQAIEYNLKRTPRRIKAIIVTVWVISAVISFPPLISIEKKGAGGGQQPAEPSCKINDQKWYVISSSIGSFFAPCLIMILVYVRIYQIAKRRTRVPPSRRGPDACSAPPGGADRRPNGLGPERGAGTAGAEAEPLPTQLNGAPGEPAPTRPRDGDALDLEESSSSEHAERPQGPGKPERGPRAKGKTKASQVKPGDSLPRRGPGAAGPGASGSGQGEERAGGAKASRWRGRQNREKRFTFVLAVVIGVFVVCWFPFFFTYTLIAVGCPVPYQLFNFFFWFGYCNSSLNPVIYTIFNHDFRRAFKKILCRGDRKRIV
Source text: as §1

[5] = test system: clonidine-induced hypothermia; experiment: Antagonism of clonidine-induced hypothermia in mice; format: in vivo
[6] = test system: postsynaptic α-adrenoreceptor; experiment: Antagonism of clonidine postsynaptic effects (blood pressure increases) after oral dosing, pithed rat; format: in vivo
[7] = test system: presynaptic α-adrenoreceptor; experiment: Presynaptic α-adrenoreceptor antagonism in the pithed rat: vas deferens, oral activity; format: in vivo; conditions: 1.0 and 5.0 mg/kg
Source text: Thirty minutes after oral administration, the rats were pithed so as to allow electrically-induced contractions of the vas deferens to be studied in situ.

[8] = test system: presynaptic α-adrenoreceptor; experiment: Reversal of clonidine inhibition of the anococcygeus muscle of the pithed rat, intravenous; format: in vivo; conditions: 0.3-1.0 mg/kg, i.v.; 1 Hz stimulation
Source text: In contrast to the rat vas deferens, both the pre- and postsynaptic adrenoreceptors of the rat anococcygeus muscle are readily accessible to exogenously applied agents and therefore this test can be used to distinguish selective presynaptic α-adrenoreceptor antagonists from non-selective agents. Contractions of the rat anococcygeus muscle induced by low frequency (1 Hz) electrical stimulation of spinal sympathetic outflow are inhibited by low doses of clonidine. Only selective presynaptic α-adrenoreceptor antagonists will reverse the inhibitory effects of clonidine.

[9] = test system: postsynaptic α-adrenoreceptor; experiment: Pressor responses in the pithed rat on intravenous administration; format: in vivo; conditions: 1-10 mg/kg, i.v.

## CN1CCN2c3ccccc3Cc3ccccc3C2C1 (stereo not drawn) [Mianserin HCl]
[1]
  i.v. dose of antagonist causing 50% reversal of clonidine block on vas deferens: > 4.4 mg/kg

## COC(=O)[C@@H]1[C@H]2C[C@H]3c4[nH]c5ccccc5c4CCN3C[C@@H]2CC[C@@H]1O [Yohimbine HCl]
[2]
  Intravenous dose of antagonist causing 50% reversal of guanabenz block of anococcygeus muscle: 0.280 mg/kg
[1]
  i.v. dose of antagonist causing 50% reversal of clonidine block on vas deferens: 0.86 mg/kg

## Cc1ccc(N(CC2=NCCN2)c2cccc(O)c2)cc1 [Phentolamine]
[2]; cumulative i.v. dose of 1.4 mg/kg
  presynaptic α-adrenoreceptor antagonist activity (in words): devoid of presynaptic α-adrenoreceptor antagonist activity
DOCA hypertensive rats; 1.0 mg/kg, oral
  blood pressure effect (in words): reduced blood pressure
  peak percentage fall in B.P.: -16%
DOCA hypertensive rats; 5.0 mg/kg, oral
  peak percentage fall in B.P.: -24%
DOCA hypertensive rats; 20 mg/kg, oral
  heart rate effect (in words): reflexly elevated
DOCA hypertensive rats; 20.0 mg/kg, oral
  peak percentage fall in B.P.: -41%
DOCA hypertensive rats; two smaller doses (1.0 and 5.0 mg/kg), oral
  heart rate effect (in words): not greatly affected

## c1ccc2c(c1)OCC(C1=NCCN1)O2 (stereo not drawn) [Compound A, 2-[2-(1,4-Benzodioxanyl)]-2-imidazoline hydrochloride]
[3]
  Postsynaptic antagonism pA2 vs Noradrenaline (anococcygeus): 6.2
[4]; Table 1
  presynaptic α-adrenoreceptor antagonist potency, rank among compounds studied: the most potent presynaptic α-adrenoreceptor antagonist
[2]; pithed rat anococcygeus, i.v.
  presynaptic α-adrenoreceptor antagonist potency, rank among compounds studied: the most potent presynaptic α-adrenoreceptor antagonist studied
[2]
  Intravenous dose of antagonist causing 50% reversal of guanabenz block of anococcygeus muscle: 0.021 mg/kg
DOCA hypertensive rats; 1.0 mg/kg, oral
  peak percentage fall in B.P.: -4%
DOCA hypertensive rats; 1.0 mg/kg, oral, hydrochloride
  blood pressure effect (in words): did not significantly alter blood pressure; also recorded: does not possess antihypertensive activity
DOCA hypertensive rats; 5.0 mg/kg, oral
  peak percentage fall in B.P.: -28%
DOCA hypertensive rats; 20.0 mg/kg, oral
  peak percentage fall in B.P.: -39%
DOCA hypertensive rats; 5.0 and 20.0 mg/kg, oral, hydrochloride
  mean arterial blood pressure effect (in words): dose-related falls in mean arterial blood pressure
DOCA hypertensive rats; three doses (1.0, 5.0 and 20.0 mg/kg), oral
  heart rate effect (in words): No significant effect on heart rate
[5]; 0.1-1.0 mg/kg, i.v.
  reversal of clonidine-induced hypothermia (in words): statistically significant dose-related reversal
[1]; pithed rat vas deferens, i.v., Table 2
  presynaptic α-adrenoreceptor antagonist potency, rank among compounds studied: clearly the most potent presynaptic α-adrenoreceptor antagonist of those studied
[1]
  i.v. dose of antagonist causing 50% reversal of clonidine block on vas deferens: 0.009 mg/kg
[6]; 1.0 mg/kg p.o.
  inhibition of the clonidine postsynaptic effects (blood pressure increases): No inhibition
[6]; 5.0 mg/kg p.o.
  inhibition of the clonidine postsynaptic effects (blood pressure increases): some antagonism was observed
[7]
  antagonism of the presynaptic action of clonidine (in words): dose-dependent competitive antagonism

## COC(=O)[C@@H]1[C@H]2C[C@H]3c4[nH]c5ccccc5c4CCN3C[C@@H]2CC[C@@H]1O [Yohimbine]
[8]
  reversal of the inhibitory action of clonidine on the anococcygeus muscle: fully reversed

## CC1(C2=NCCN2)Oc2ccccc2O1 [Compound B, 2-[2-(2-methyl-1,3-benzodioxyl)]-2-imidazoline hydrochloride]
[3]
  Postsynaptic antagonism pA2 vs Noradrenaline (anococcygeus): < 4.4
[4]; isolated rat vas deferens, 0.1 Hz, mean of minimum 5 experiments, "<" means inactive at a concentration which would have given the pA indicated, read-out: Presynaptic antagonism pA2 vs Clonidine (vas deferens) (converted)
  Kb: 631 nM
[4]; presynaptic antagonism (vs clonidine, vas deferens) to postsynaptic antagonism (vs noradrenaline, anococcygeus)
  Pre/postsynaptic ratio: > 67
DOCA hypertensive rats; 1.0 mg/kg, oral
  blood pressure effect (in words): significant antihypertensive effect
  peak percentage fall in B.P.: -15%
DOCA hypertensive rats; 5.0 mg/kg, oral
  peak percentage fall in B.P.: -25%
DOCA hypertensive rats; 20.0 mg/kg, oral
  peak percentage fall in B.P.: -14%
DOCA hypertensive rats; 20 mg/kg, p.o. versus 5 mg/kg, p.o.
  maximum hypotensive effect following 20 mg/kg (in words): less than that produced by 5 mg/kg, p.o. compound B
DOCA hypertensive rats; 1-20 mg/kg, p.o.
  dose-relation of the falls in blood pressure (in words): not dose-related
[5]; 30 mg/kg i.v.
  effect on clonidine-induced hypothermia (in words): potentiated the clonidine-induced hypothermia
[5]; 1-10 mg/kg, i.v.
  reversal of clonidine-induced hypothermia (in words): partial reversal
  reversal of clonidine-induced hypothermia compared with vehicle (significance, in words): not significantly different from animals treated with vehicle
[1]; cumulative i.v. dose 14.4 mg/kg
  maximum reversal of the inhibitory effects of clonidine on hypogastric nerve stimulation: 66%
[1]
  i.v. dose of antagonist causing 50% reversal of clonidine block on vas deferens: 5.60 mg/kg
[9]
  pressor responses / postsynaptic α-adrenoreceptor agonist activity (in words): pressor responses in the pithed rat were seen

## CN1CCN2c3ccccc3Cc3ccccc3C2C1 (stereo not drawn) [Mianserin]
[1]; cumulative i.v. dose 4.4 mg/kg
  maximum reversal of the inhibitory effects of clonidine on hypogastric nerve stimulation: 36%

## Cc1ccc(N(CC2=NCCN2)c2cccc(O)c2)cc1 [Phentolamine mesylate]
[2]
  Intravenous dose of antagonist causing 50% reversal of guanabenz block of anococcygeus muscle: > 1.4 mg/kg
[1]
  i.v. dose of antagonist causing 50% reversal of clonidine block on vas deferens: 0.12 mg/kg
